# Test results published in publication PMC6085657, “DNA display of fragment pairs as a tool for the discovery of novel biologically active small molecules” (Chemical Science, 2014).
# Several values for one entry are separate records, joined by “and”; a condition that tells them apart may be missing. Equal values may be shown once. Entries after “also recorded” stand apart in the source; their conditions may differ. Read-outs that look alike come from different tables or passages of the source.
# Tests used:
# Hsp70 [1] = target: T1, Hsp70 (Homo sapiens, UniProt P0DMV8); assay: SPR affinity measurement, biotinylated compounds immobilized on a streptavidin chip, Hsp70 analyte; assay type: binding; conditions: compound immobilized on streptavidin chip, values in parentheses have chi2 > 10
# Hsp90 [2] = assay: SPR affinity measurement, biotinylated compounds immobilized on a streptavidin chip, Hsp90 analyte; assay type: binding; conditions: compound immobilized on streptavidin chip, values in parentheses have chi2 > 10
# Hsp70-GST [3] = target: T2, Hsp70-GST (Homo sapiens, UniProt P0DMV8); assay: Microarray-based screen of the focused library against Hsp70-GST (fluorescence, anti-GST DyLight 649); assay type: binding; conditions: fluorescence intensity on the microarray, mean of four spots, SD between 5% and 10%; PNA-tagged library member
# T2 construct: purchased Signal Chem H34-54G
# Source text: A microarray pairing 125 biologically validated fragments[11] (FDA-approved drugs, bioactive natural products or fragments thereof) with a library of 500 heterocycles was used as a preliminary screen.[6] The microarray contained 62 500 unique DNA sequences that combinatorially paired both fragment libraries. […] The result from this screen with Hsp70 is shown in Fig. 2, arranged with fragments from the 125-fragment set and 500-fragment set on horizontal and vertical lines, respectively. The recurrence of binding across a line reflects the fitness of a given fragment. Thus, line intensities were used to rank the different fragments. What is interesting is that lines across the library of the 500-fragment set (4B, 24B, 44B, 84B, 124B, …) shared a common structural motif (biaryl-ether; Fig. 2). […] It is noteworthy that this biaryl moiety is part of a previously reported Hsp70 ligand (MAL3-101).[13],[14] […] Although screening fragments as conjugates to a nucleic acid tag restricts their binding mode to a particular orientation (the orientation that will position the linker to the tag toward the outside of the binding pocket), it greatly facilitates the synthesis of the corresponding covalent adduct combining both fragments, as the same chemistry that was used to link the fragments to the tag can be used to covalently pair them. Nonetheless, the linker length and conformational bias must be identified experimentally. We reasoned that the identified fragments could be used as the starting point for a focused library covalently pairing the fragments. This would allow for supplementing the selected fragment set with new entities (near neighbours) and enriching the local diversity space around these initial hits. Such iterative processes are highly efficient in sifting through a large diversity space. Following this strategy, we designed an Hsp70-focused library of 10 000 members using 20 fragments A × 5 different linkers with different lengths and geometrical constraints × 100 fragments B. The 100-fragment set contained 90 entities that were not present in the original screen. To be viable, an iterative library synthesis approach should be leveraged on chemistry that is compatible with SPPS and can be performed by automated PNA-encoded synthesis. As shown in Scheme 1, this was achieved through the use of three orthogonal amino group masking strategies (Mtt, Fmoc, and azide) that enabled selective chemical reactions at both sites of the linker joining the fragment and the encoding site. Thus, a resin derivatized with lysine with orthogonal protecting groups (Mtt and N3) was split into 100 pools and deprotected on one end (Mtt deprotection using HFIP), and the different linkers to join both fragments were introduced by standard peptide coupling method, affording the two sites for fragment coupling protected by Fmoc and Mtt, respectively.[15] The fragments were coupled using two different chemistries: for fragments containing a carboxylic acid, DIC/HOBt was used; for fragments with an amino group, hydroxyl, or aniline, the amino-functionalized linker was first treated with 4-nitrophenylchloroformate and the resulting carbamate coupled with the fragment. The azide was next reduced and the first 100 pools were encoded with a 7mer Boc-protected PNA sequence. The resins were mixed and split to introduce the second encoding 7mer sequence followed by deprotection of Mtt and the introduction of the corresponding second fragments. The success of each fragment coupling and encoding step was verified by MALDI analysis of an analytical sample. Cleavage of the final library and hybridization afforded the spatially resolved 10 000-member Hsp70-focused library. A slide containing 4-fold redundancy of each DNA sequence randomly distributed on the array was used to have four data points for each small molecule–target interaction, thus allowing a statistical analysis of the hits. The array was screened under three different conditions: Hsp70, Hsp70 + Hsp40, and Hsp70 + ATP. […]
# Hsp70 [4] = target: T1, Hsp70; parameters: method as in PMID 15448148; conditions: cited from earlier work
# Hsp70/Hsp40 = target: T3, Hsp70/Hsp40 (Homo sapiens, UniProt P0DMV8); assay: Malachite Green Hsp70 ATPase assay; assay type: biochemical; conditions: for inhibition at 1 µM: 1 molar equivalent to Hsp70 (1 μM), read-out: ATPase inhibition in dose response; for ATPase inhibition: 200 molar equivalence of inhibitor (200 μM), Hsp70/Hsp40 1 μM, ATP 1 mM
# T3 construct: purchased Novus Biologicals NBC1-18367
# Hsp70 [5] = target: T1, Hsp70; assay: Fluorescence polarization displacement assay with 1-FITC; assay type: binding; conditions: 1-FITC 25 nM, Hsp70 100 nM; R2 = 0.998; read-out: Affinity for Hsp70 by fluorescence polarization displacement (IC50)
# Hsp70 [6] = target: T1, Hsp70; parameters: method as in PMID 16806043; conditions: read-out: affinity of Hsp70 for ligand; cited from earlier work
# Hsp90 [7] = assay: Protein pull-down with ligand immobilized on streptavidin magnetic beads, Hsp90; assay type: binding; conditions: recombinant Hsp90 300 nM, SDS PAGE
# [8] = target: T4, Heat shock 70 kDa protein 1A/1B (Homo sapiens, UniProt P0DMV8); assay: Proteomic (MS-MS) analysis of pull-down from HEK crude cell lysate; assay type: binding; conditions: Hsp71_HUMAN in pull-down from HEK crude cell lysate
# T4 construct: endogenous in cells; host or cells: HEK293-T
# Hsp70 [9] = target: T1, Hsp70; assay: Pull-down of Hsp70 from crude HEK cell lysates, Western blot; assay type: binding; conditions: HEK lysate, Western blot with anti-Hsp70 antibody
# Hsp70-GST [10] = target: T2, Hsp70-GST; assay: Protein pull-down with ligand immobilized on streptavidin magnetic beads, Hsp70; assay type: binding; conditions: recombinant Hsp70-GST 300 nM, SDS PAGE
# carbonic anhydrase = target: T5, carbonic anhydrase (Homo sapiens, UniProt P00918); assay: Pull-down from crude HEK cell lysates, Western blot for carbonic anhydrase (negative control); assay type: binding; conditions: HEK lysate, negative control protein
# T5 construct: endogenous in cells; host or cells: HEK293-T
# T1 sequence (P0DMV8 whole entry): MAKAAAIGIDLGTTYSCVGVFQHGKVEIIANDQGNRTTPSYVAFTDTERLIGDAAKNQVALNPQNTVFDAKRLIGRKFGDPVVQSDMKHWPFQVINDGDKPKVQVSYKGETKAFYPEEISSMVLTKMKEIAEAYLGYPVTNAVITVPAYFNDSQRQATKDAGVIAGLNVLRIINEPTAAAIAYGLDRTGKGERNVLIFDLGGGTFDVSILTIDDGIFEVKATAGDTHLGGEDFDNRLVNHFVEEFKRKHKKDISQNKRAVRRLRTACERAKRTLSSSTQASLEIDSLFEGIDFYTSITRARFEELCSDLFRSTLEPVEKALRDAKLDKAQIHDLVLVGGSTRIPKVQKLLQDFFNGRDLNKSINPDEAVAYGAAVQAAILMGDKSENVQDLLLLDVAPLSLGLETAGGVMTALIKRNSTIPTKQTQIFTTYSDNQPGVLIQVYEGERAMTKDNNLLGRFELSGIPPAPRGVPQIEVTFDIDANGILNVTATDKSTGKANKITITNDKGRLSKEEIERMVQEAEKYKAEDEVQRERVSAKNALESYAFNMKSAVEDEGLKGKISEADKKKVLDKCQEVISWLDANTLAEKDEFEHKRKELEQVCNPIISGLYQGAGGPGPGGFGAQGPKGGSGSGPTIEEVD
# T2 sequence (P0DMV8 whole entry): as above
# T3 sequence (P0DMV8 whole entry): as above
# T4 sequence (P0DMV8 whole entry): as above
Compound,Kd (Hsp70 [1]),Kd (Hsp90 [2]) [nM],FU microarray HSP70-GST (Hsp70-GST [3]),other results
NC(=O)C(CCCCNC(=O)C(CCCCNC(=O)c1ccc2[nH]nc(Br)c2c1)NS(=O)(=O)c1ccc(-c2ccccc2)cc1)NC(=O)COCCOCCNC(=O)CCCCC1SCC2NC(=O)NC21 (stereo not drawn) [Compound 7a],1.34 nM,3.17,24 143 FU,
CCCCCCN(C(=O)CCCCCN1C(=O)NC(c2ccc(-c3ccccc3)cc2)C(C(=O)OCc2ccccc2)=C1C)C(C(=O)NCCCC)c1ccc(OCC(=O)OC)c(C(=O)OC)c1 (stereo not drawn) [MAL3-101],,,,effect on Hsp70 ATPase activity (Hsp70 [4]): stimulate this activity
Cc1ccc(/C=C/C(=O)NCC(NC(=O)c2ccc(NC(=O)CCC(=O)c3ccc(-c4ccccc4)cc3)cc2)C(N)=O)cc1 (stereo not drawn) [Compound 1b],,,,inhibition at 1 µM (Hsp70/Hsp40): > 50%; ATPase inhibition (Hsp70/Hsp40): complete inhibition; IC50 (Hsp70 [5]): 31 nM
NC(=O)C(CCCCNC(=O)C(CNC(=O)c1cccc(-c2cccnc2)c1)NC(=O)c1ccc(NC(=O)COCC(=O)N2CCCN(S(=O)(=O)c3cccc4cnccc34)CC2)cc1)NC(=O)COCCOCCNC(=O)CCCCC1SCC2NC(=O)NC21 (stereo not drawn) [Compound 5a],0.38 nM,5.44,28 447 FU,
Nc1ncnc2c1ncn2[C@@H]1O[C@H](COP(=O)(O)OP(=O)(O)O)[C@@H](O)[C@H]1O [ADP],,,,Kd (Hsp70 [6]): 260 nM
CSc1nnc(CCCOC(=O)NCC(NC(=O)CC2=C(C)C(=Cc3ccc([S+](C)[O-])cc3)c3ccc(F)cc32)C(=O)NCCCCC(NC(=O)COCCOCCNC(=O)CCCCC2SCC3NC(=O)NC32)C(N)=O)n1-c1ccc(Cl)cc1Cl (stereo not drawn) [Compound 4a],2.69 nM,10.7,28 566 FU,
Cc1oncc1C(=O)Nc1ccc(O)c(C(=O)NCC(NC(=O)c2ccc(NC(=O)CCC(=O)c3ccc(-c4ccccc4)cc3)cc2)C(N)=O)c1 (stereo not drawn) [Compound 2b],,,,inhibition at 1 µM (Hsp70/Hsp40): > 50%; ATPase inhibition (Hsp70/Hsp40): complete inhibition
CSc1nnc(CCCOC(=O)NCCCCC(NS(=O)(=O)c2ccc(-c3ccccc3)cc2)C(=O)NCCCCC(NC(=O)COCCOCCNC(=O)CCCCC2SCC3NC(=O)NC32)C(N)=O)n1-c1ccc(Cl)cc1Cl (stereo not drawn) [Compound 6a],2.33 nM,18.7,28 958 FU,
Cc1oncc1C(=O)Nc1ccc(O)c(C(=O)NCC(NC(=O)c2ccc(NC(=O)CCC(=O)c3ccc(-c4ccccc4)cc3)cc2)C(=O)NCCCCC(NC(=O)COCCOCCNC(=O)CCCCC2SCC3NC(=O)NC32)C(N)=O)c1 (stereo not drawn) [Compound 2a],1.58 nM,,28 653 FU,capture of Hsp90 on streptavidin magnetic beads (Hsp90 [7]): not Hsp90; % Protein Coverage [8]: 24.8%; retention of Hsp70 from crude cell lysates (Hsp70 [9]): retained Hsp70; KD HSP90 (Hsp90 [2]): no measurable affinity; also recorded: Low binding; capture of Hsp70 on streptavidin magnetic beads (Hsp70-GST [10]): retained Hsp70; retention of carbonic anhydrase from crude cell lysates (carbonic anhydrase): no carbonic anhydrase
CCC(COC(=O)NCCCCC(NC(=O)CC1=C(C)C(=Cc2ccc([S+](C)[O-])cc2)c2ccc(F)cc21)C(=O)NCCCCC(NC(=O)COCCOCCNC(=O)CCCCC1SCC2NC(=O)NC21)C(N)=O)c1ccccc1 (stereo not drawn) [Compound 13a],1.16 nM,29.5,27 215 FU,

# Now from value to compound, other results behind:
Kd (Hsp70 [1]),Kd (Hsp90 [2]) [nM],FU microarray HSP70-GST (Hsp70-GST [3]),Compound,other results
12 nM and 12.1 nM,5.6,27 941 FU,CC(C(=O)Nc1cccc(C(=O)NC(CNC(=O)c2ccc3[nH]nc(Br)c3c2)C(=O)NCCCCC(NC(=O)COCCOCCNC(=O)CCCCC2SCC3NC(=O)NC32)C(N)=O)c1)c1cccc(Oc2ccccc2)c1 (stereo not drawn) [Compound 11a],
2.02 nM,10.1,28 174 FU,CSc1nnc(CCCOC(=O)NCC(NC(=O)CCC(=O)c2ccc(-c3ccccc3)cc2)C(=O)NCCCCC(NC(=O)COCCOCCNC(=O)CCCCC2SCC3NC(=O)NC32)C(N)=O)n1-c1ccc(Cl)cc1Cl (stereo not drawn) [Compound 12a],
1.3 nM,35.3,28 732 FU,Cc1ccc(C(=O)NCC(NC(=O)c2cccc(NS(=O)(=O)c3ccc(Oc4ccccc4)cc3)c2)C(=O)NCCCCC(NC(=O)COCCOCCNC(=O)CCCCC2SCC3NC(=O)NC32)C(N)=O)cc1[N+](=O)[O-] (stereo not drawn) [Compound 15a],
0.8 nM,16.9,27 982 FU,COc1ccc(C=CC(=O)NCC(NC(=O)c2cccc(NC(=O)CCC(=O)c3ccc(-c4ccccc4)cc3)c2)C(=O)NCCCCC(NC(=O)COCCOCCNC(=O)CCCCC2SCC3NC(=O)NC32)C(N)=O)cc1OC (stereo not drawn) [Compound 8a],
0.64 nM,14.7,29 024 FU,NC(=O)C(CCCCNC(=O)C(CNC(=O)c1ccc2[nH]nc(Br)c2c1)NC(=O)c1cccc(NC(=O)CCC(=O)c2ccc(-c3ccccc3)cc2)c1)NC(=O)COCCOCCNC(=O)CCCCC1SCC2NC(=O)NC21 (stereo not drawn) [Compound 9a],
1.88 nM,2.97,28 961 FU,COc1ccc(C=CC(=O)NCC(NC(=O)c2ccc(NC(=O)COCC(=O)NC(C)COc3c(C)cccc3C)cc2)C(=O)NCCCCC(NC(=O)COCCOCCNC(=O)CCCCC2SCC3NC(=O)NC32)C(N)=O)cc1OC (stereo not drawn) [Compound 10a],
2.88 nM,52.8,28 588 FU,COc1ccc(C=CC(=O)NCC(NC(=O)c2cccc(NS(=O)(=O)c3ccc(-c4ccccc4)cc3)c2)C(=O)NCCCCC(NC(=O)COCCOCCNC(=O)CCCCC2SCC3NC(=O)NC32)C(N)=O)cc1OC (stereo not drawn) [Compound 14a],
